Laboratory results as given in ChEMBL document CHEMBL5465560, “Selectivity Literature for EUbOPEN Chemogenomic Library” (2024).
Blank lines part the entries; values can stand above or below the molecule they belong to.

What was measured:
[1] = target: Casein kinase I isoform epsilon (Homo sapiens, UniProt P49674); assay: Selectivity interaction (KinomeScan (DiscoverX)) EUB0000618a CSNK1E; details: at 10 µM
[2] = Selectivity interaction (KinomeScan (DiscoverX)) EUB0000618a CDK2H; details: at 10 µM
[3] = target: Serine/threonine-protein kinase mTOR (Homo sapiens, UniProt P42345); assay: Selectivity interaction (KinomeScan (DiscoverX)) EUB0001619a MTOR; details: at 1 µM
[4] = target: T1, Bone morphogenetic protein receptor type-2 (Homo sapiens) (UniProt Q13873); assay: Selectivity interaction (KinomeScan (DiscoverX)) EUB0000595a BMPR2; details: at 10 µM
T1 sequence (whole entry): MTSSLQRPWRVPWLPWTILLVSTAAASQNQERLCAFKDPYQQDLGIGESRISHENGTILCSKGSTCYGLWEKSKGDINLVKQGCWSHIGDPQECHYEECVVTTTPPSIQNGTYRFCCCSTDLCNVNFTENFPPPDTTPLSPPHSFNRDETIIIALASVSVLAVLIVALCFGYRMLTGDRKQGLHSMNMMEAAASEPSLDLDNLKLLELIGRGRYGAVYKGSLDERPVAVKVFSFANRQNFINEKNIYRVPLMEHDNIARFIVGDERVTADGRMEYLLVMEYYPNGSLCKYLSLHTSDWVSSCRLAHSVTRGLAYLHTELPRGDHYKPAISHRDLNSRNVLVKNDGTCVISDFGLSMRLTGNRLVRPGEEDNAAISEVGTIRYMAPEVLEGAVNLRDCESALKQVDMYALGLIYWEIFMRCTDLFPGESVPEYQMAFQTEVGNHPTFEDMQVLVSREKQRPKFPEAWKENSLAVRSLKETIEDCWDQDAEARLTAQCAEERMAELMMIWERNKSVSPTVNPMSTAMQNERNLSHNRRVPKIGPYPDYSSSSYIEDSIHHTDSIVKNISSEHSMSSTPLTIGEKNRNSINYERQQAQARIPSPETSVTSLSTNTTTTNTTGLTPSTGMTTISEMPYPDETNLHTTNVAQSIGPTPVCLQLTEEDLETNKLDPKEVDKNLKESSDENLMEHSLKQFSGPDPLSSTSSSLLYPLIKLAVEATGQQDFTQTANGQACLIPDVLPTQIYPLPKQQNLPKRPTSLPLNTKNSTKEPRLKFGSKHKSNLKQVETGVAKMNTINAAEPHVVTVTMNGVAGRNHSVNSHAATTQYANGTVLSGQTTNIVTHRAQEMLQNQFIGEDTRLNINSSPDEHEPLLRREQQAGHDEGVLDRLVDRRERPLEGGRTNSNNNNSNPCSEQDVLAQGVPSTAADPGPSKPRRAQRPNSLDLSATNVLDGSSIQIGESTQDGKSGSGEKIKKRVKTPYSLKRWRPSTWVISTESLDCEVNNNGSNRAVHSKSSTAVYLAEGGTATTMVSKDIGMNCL

[5] = target: 5'-AMP-activated protein kinase catalytic subunit alpha-1 (Homo sapiens, UniProt Q13131); assay: Selectivity interaction (ProQinase) EUB0000171b PRKAA1
Sequence of 5'-AMP-activated protein kinase catalytic subunit alpha-1 (Q13131 whole entry, looked up): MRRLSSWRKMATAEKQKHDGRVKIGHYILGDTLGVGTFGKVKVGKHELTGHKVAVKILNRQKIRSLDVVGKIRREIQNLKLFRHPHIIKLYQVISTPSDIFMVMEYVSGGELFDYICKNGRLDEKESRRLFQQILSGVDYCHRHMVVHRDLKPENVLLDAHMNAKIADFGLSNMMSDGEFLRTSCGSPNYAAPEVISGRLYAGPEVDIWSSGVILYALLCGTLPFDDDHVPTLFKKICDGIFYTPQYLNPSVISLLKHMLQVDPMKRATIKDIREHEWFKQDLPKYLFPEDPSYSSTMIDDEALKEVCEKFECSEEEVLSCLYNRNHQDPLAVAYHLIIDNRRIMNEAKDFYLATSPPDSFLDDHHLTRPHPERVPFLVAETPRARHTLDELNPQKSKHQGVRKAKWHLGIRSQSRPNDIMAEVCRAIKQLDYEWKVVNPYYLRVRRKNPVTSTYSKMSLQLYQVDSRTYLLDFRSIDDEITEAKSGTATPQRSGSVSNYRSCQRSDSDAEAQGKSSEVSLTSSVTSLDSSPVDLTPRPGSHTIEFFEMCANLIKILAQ

[6] = target: T2, Serine/threonine-protein kinase BRSK2 (Homo sapiens) (UniProt Q8IWQ3); assay: Selectivity interaction (KinomeScan (DiscoverX)) EUB0000092b BRSK2; details: at 10 µM
T2 sequence (whole entry): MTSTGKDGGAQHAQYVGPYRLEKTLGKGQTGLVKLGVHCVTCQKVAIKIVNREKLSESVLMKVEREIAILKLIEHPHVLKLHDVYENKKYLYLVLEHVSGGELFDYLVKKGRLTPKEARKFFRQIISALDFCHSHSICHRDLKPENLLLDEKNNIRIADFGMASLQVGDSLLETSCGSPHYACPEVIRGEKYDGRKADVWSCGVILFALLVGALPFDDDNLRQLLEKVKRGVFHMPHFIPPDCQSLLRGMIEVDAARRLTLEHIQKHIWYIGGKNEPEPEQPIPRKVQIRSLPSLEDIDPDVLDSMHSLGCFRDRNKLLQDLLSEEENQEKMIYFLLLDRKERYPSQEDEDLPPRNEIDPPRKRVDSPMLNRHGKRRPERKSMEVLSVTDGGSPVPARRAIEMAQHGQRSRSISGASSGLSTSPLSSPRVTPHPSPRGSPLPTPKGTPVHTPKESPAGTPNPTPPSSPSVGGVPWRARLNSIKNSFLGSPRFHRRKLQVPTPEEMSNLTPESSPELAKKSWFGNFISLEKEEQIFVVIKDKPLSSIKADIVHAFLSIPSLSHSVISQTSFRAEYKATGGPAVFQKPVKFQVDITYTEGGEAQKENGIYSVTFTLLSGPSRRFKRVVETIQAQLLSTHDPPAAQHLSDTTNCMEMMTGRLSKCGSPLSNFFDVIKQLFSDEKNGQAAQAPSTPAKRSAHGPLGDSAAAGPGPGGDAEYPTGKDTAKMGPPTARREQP

[7] = target: Casein kinase I isoform delta (Homo sapiens, UniProt P48730); assay: Selectivity interaction (KinomeScan (DiscoverX)) EUB0000092b CSNK1D; details: at 10 µM
Sequence of Casein kinase I isoform delta (P48730 whole entry, looked up, canonical isoform): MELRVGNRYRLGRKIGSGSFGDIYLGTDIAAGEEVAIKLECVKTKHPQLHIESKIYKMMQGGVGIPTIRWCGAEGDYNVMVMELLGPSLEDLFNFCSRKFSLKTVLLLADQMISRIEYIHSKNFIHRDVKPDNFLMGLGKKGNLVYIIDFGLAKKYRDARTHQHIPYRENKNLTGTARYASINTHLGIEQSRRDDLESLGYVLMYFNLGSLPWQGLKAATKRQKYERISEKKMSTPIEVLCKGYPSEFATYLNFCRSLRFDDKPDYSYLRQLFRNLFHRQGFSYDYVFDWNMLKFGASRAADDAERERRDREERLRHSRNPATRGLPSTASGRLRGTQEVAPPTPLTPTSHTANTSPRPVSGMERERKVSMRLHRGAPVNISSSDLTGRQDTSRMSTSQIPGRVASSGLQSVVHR

[8] = target: MAP kinase-activated protein kinase 2 (Homo sapiens, UniProt P49137); assay: Selectivity interaction (Kinase panel (Z-LYTE Assay)) EUB0001632a MAPKAPK2; details: at 10 µM
Sequence of MAP kinase-activated protein kinase 2 (P49137 whole entry, looked up): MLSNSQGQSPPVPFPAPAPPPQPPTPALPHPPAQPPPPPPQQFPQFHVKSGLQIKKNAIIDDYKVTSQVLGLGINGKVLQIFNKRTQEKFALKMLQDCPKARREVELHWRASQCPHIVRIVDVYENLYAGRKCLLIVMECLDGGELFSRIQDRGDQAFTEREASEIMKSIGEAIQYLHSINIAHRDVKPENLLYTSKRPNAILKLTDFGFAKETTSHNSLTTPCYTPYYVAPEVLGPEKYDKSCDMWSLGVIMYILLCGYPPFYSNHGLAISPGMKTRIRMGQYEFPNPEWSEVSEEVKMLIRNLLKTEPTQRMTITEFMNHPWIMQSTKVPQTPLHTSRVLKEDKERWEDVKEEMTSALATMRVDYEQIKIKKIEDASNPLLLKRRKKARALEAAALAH

Sequence of Casein kinase I isoform epsilon (P49674 whole entry, looked up, canonical isoform): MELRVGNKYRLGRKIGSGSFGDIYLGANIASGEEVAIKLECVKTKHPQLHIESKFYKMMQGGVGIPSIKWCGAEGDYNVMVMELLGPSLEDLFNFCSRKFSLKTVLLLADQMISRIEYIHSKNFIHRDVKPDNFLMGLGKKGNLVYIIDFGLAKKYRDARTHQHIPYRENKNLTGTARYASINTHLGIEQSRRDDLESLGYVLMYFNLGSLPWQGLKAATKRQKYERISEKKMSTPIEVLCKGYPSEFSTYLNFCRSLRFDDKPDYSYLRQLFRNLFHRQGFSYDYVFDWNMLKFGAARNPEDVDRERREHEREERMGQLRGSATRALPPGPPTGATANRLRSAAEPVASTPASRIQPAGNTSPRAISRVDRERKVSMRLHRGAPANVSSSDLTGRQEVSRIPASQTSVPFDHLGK

SMILES: O[C@H]1CC[C@H](Nc2ncc3nc(Nc4c(F)cc(F)cc4F)n([C@H]4CCOC4)c3n2)CC1
% of control [1]: 11%
% of control [2]: 100%

SMILES: N#Cc1cccc(-c2c[nH]c3ncnc(N4CCOCC4)c23)c1
% of control [3]: 58%

SMILES: COCC(=O)NC/C=C/c1ccc2ncnc(Nc3ccc(Oc4ccc(C)nc4)c(C)c3)c2c1 [CP-724714]
% of control [4]: 74%

% of control ([5]; at 1 µM): 100%
% of control ([5]; at 5 µM): 93%
SMILES: C=CC(=O)Nc1cccc(C(=O)Nc2ccc(Nc3cc(-c4[nH]c(SC)nc4C)ccn3)cc2)c1

SMILES: CCC(=O)N1CCN(c2ccc(-n3c(=O)ccc4cnc5ccc(-c6cnc7ccccc7c6)cc5c43)cc2C(F)(F)F)CC1
% of control [6]: 76%
% of control [7]: 4.3%

% of control [8]: -2.67%
SMILES: Cn1cc(-n2cnc3c(NCc4nc5cc(Cl)c(Cl)cc5[nH]4)nc(N4CCOCC4)nc32)cn1
